Experimental findings from US8202904B2, “α-cyano-4-fluoro-3-phenoxybenzyl meta-halo pyrethrate, a process for preparing the same and the uses thereof” (East China Normal University, priority 2007, dated 2012) are described below.

The term LC50 denotes the concentration lethal to half of the exposed cells or organisms. Broadly, the mortality is the percentage killed.

The test system of data set [1] is Culex pipiens pallens fourth instar wiggler. The experiment in a line: Killing effect on wiggler, WHO immersing method, LC50. It counts as in vivo. The settings on record: for LC50: Culex pipiens pallens fourth instar wiggler, immersing method, mortality after 24 hours, 26±1° C.; for Relative toxicity: from wiggler LC50, Cypermethrin = 100. Here is the method:
The following pyrethrates were tested as representatives according to the method recommended by the World Health Organization (WHO) (Zongbing ZHANG, the assay of toxicity of insecticides, the Science Press, 1988), the commonly used testing breed, Culex pipiens pallens fourth instar wiggler is used as a subject for biological assay, test temperature: 26±1° C., humidity: 70±10%; immersing method: a solution of a certain amount the compound to be tested in acetone was mixed evenly with pure water in the gradually decreasing concentration of 500, 250, 100, 50, 25, 12.5, 6.25, 3.125, 1, 0.5, 0.25, 0.1, 0.05, 0.025, 0.01, 0.005, 0.0025, 0.0001 mg/L, and the mortality of wiggler after 24 hours was calculated and LC50 was calculated to preliminarily evaluate the insecticidal activity. The results were shown in Table I. Compound 1-5 are representative examples of the compound of formula (I) of the present invention: the compounds involved in preparation Example 1-5 were prepared;
At the same time, their relative toxicities were compared with those of Cypermethrin, and Deltamethrin.

Data set [2] has as its system Musca domestica. The experiment in a line: Striking down effect on Musca domestica, liquid film contact method. It counts as in vivo. Also on record: unit not given here. The settings on record: Musca domestica adults, film from 1 ml of 0.1% liquor in acetone in 500 ml conical flask. Here is the method: The striking down effect on Musca domestica was tested using Compounds 2 and 3, which are representative examples of the compound of formula (I) of the present invention, Compound 9 as a control example. Musca domestica, an in-house cultured sensitive strain, the adult insects in eclosion for 3-5 days were used, and the male and female insects are half and half. Test temperature: 26±1° C., humidity: 70±10%, test method: liquid film contact method. 1 ml of 0.1% liquor in acetone was evenly coated on a 500 ml conical flask to form a film. After the film was dry, 20˜25 adult insects were put into the flask, and the striking down time and striking down number were observed, and each treatment was done in triplicate.

The test system of data set [3] is Blattela germanica. The data set is described as follows: Striking down effect on cockroaches, liquid film contact method. Further details: unit not given here. Type of data set: in vivo. The note with it: Blattela germanica male adults, film at 54 mg/m^2, 22±1° C. As for the experimental part:
The striking down effect on Blattela germanica was tested using Compound 2 and 3, which are representative examples of the compound of formula (I) of the present invention, Compound 9 as a control example. Blattela germanica, an in-house cultured sensitive strain, male adult insects were used. Test temperature: 22±1° C., test method: liquid film contact method. A liquor in acetone was evenly coated at the amount of 54 mg/m^2 on the inner wall of a wild mouth bottle to form a film. After the film was dry, 10 adult insects were put into each bottle, and the striking down time and striking down number were observed, and each treatment was done in triplicate.

For data set [4], the system named is Mythimna separata. The experiment in a line: Killing effect on Mythimna separata, dipped corn leaves fed to larvae. It counts as in vivo. The note with it: after 48 hours, read-out: The average mortality. As for the experimental part:
The killing effect on Mythimna separata was tested using Compounds 2 and 3, which are representative examples of the compound of formula (I) of the present invention, Compound 9, polyfluorobenzyl meta-halo pyrethrate, which has the highest insecticidal activity to Mythimna separata as a control example.
Mythimna separata: test temperature: 26±1° C., humidity: 70±10%; the corn leaves was immersed, and then were taken out after they were dipped in a liquor in dimethyl sulfoxide for 5 seconds. The liquor was dried in the shade and the corn leaves were cut away to feed larvae at the beginning of the third instar. Each treatment was done in triplicate. The number of killed insects was counted after 48 hours to calculate the mortality.

The test system of data set [5] is Tetrangychus cinnabarinus. The experiment in a line: Killing effect on Tetrangychus cinnabarinus, immersion. It counts as in vivo. The note with it: after 24 hours. As for the experimental part: The killing effect on acarids was tested using Compound 2 and 3, which are representative examples of the compound of formula (I) of the present invention, Compound 9 as a control example. Tetrangychus cinnabarinus, test temperature: 26±1° C. humidity: 70±10%; test method: immersion; adult insects together with horsebean leaves were immersed in a liquor in dimethyl sulfoxide for 5 seconds, after which the leaves were inserted into a small bottle. Each treatment was done in triplicate. The number of the killed insects was checked after 24 hours to calculate the mortality.

The subject of data set [6] is Aphis medicaginis kock. The experiment in a line: Killing effect on aphids, immersion. Type of data set: in vivo. The note with it: Aphis medicaginis, aphids, after 24 hours, read-out: The average mortality. Here is the method: The killing effect on aphids was tested using Compound 2 and 3, which are representative examples of the compound of formula (I) of the present invention, Compound 9 as a control example. Aphis medicaginis kock; test temperature: 26±1° C., humidity: 70±10%; test method: immersion; adult insects together with bean sprouts were immersed in a liquor in dimethyl sulfoxide for 5 seconds, after which the bean sprouts were heeled in a solid support. Each treatment was done in triplicate. The number of the killed insects was checked after 24 hours to calculate the mortality.

Data set [7] can be described thus: Stability test, ultraviolet lamp irradiation, gas chromatography analysis. The note with it: 0.15 mmol in 50 ml cyclohexane, 500 W ultraviolet lamp, 30 min. It counts as physicochemical. Here is the method:
0.15 mmol of the compound of Preparation Example 2 (cis-α-cyano-3-phenoxy-4-fluoro-benzyl-2,2-dimethyl-3-(2-chlorovinyl)cyclopropane carboxylate) and 0.15 mmol of the corresponding dichloride compound (cis-α-cyano-3-phenoxy-4-fluoro-benzyl-2,2-dimethyl-3-(2,2-dichlorovinyl)cyclopropane carboxylate) were added to two vessels separately, to which 50 ml of cyclohexane were added separately. They were irradiated by a 500 W ultraviolet lamp for 30 min respectively. Then to each of the vessels were added 0.15 mmol of n-hexane as an internal standard for gas chromatography analysis. […] The photodegradation rate of the former is 1.9 times of that of the latter. That is to say, if the same amounts were used, the residue of the former in the environment is lower than that of the latter.

≈ marks a conversion by molar mass, not a printed value. Where two headings read alike, the source gives them in different places.

For the compound `CC1(C)[C@H](/C=C/Cl)[C@@H]1C(=O)OCc1c(F)c(F)c(F)c(F)c1F` (relative stereo) [Compound 8, cis-pentafluorobenzyl-3-(E-2-chlorovinyl)-2,2-dimethyl cyclopropane carboxylate], in data set [1], the LC50 turned out to be 0.0801 µg/mL (≈ 0.226 µM) and the Relative toxicity was 13.

With `CC1(C)[C@@H](C=CCl)[C@@H]1C(=O)OC(C#N)c1ccc(F)c(Oc2ccccc2)c1` (relative stereo) [Compound 3, Trans-α-cyano-3-phenoxy-4-fluoro-benzyl-2,2-dimethyl-3-(2-chlorovinyl)cyclopropane carboxylate], the KT50 is given as 5.80 in data set [2] and 8.14 in data set [3]. In addition, in data set [1] (read-out: LC50), the median lethal concentration (LC50) is 0.0055 µg/mL (≈ 0.0138 µM). In addition, the Relative toxicity in data set [1] was determined as 193. For the same compound, the mortality at 0.5 ppm in data set [4] (0.5 ppm) and in data set [6] (0.5 ppm) was 0% in each case. In addition, the mortality at 1 ppm in data set [4] (1 ppm) stood at 0%; in data set [6] (1 ppm) it was 66.3%. The mortality at 5 ppm in data set [4] (5 ppm) amounted to 100%; in data set [6] (5 ppm), 83.7%. The mortality at 50 ppm in data set [4] (50 ppm) and in data set [6] (50 ppm) was 100% throughout. Also, the mortality at 500 ppm in data set [4] (500 ppm) and in data set [6] (500 ppm) was 100% each time. Also, the The average mortality in data set [5] (1 mg/L) is 0%; in data set [5] (5 mg/L), 0%; in data set [5] (50 mg/L), 7.8%; in data set [5] (500 mg/L), 100%.

In the case of `CC1(C)[C@@H](C=CCl)[C@@H]1C(=O)OC(C#N)c1cccc(Oc2ccccc2)c1` (relative stereo) [Compound 13, trans-α-cyano-3-phenoxybenzyl-2,2-dimethyl-3-(2-chlorovinyl)cyclopropane carboxylate], the 50% lethal concentration (LC50) in data set [1] (read-out: LC50) was 0.0527 µg/mL (≈ 0.138 µM). In addition, the Relative toxicity in data set [1] came to 20.

For `CC1(C)[C@H](C=CBr)[C@@H]1C(=O)OC(C#N)c1cccc(Oc2ccccc2)c1` (relative stereo) [Compound 12, cis-α-cyano-3-phenoxybenzyl-2,2-dimethyl-3-(2-bromovinyl)cyclopropane carboxylate], in data set [1] (read-out: LC50), the LC50 came out at 0.0108 µg/mL (≈ 0.0253 µM). The same compound came in with a Relative toxicity in data set [1] of 98.

As to `Cc1c(F)c(F)c(COC(=O)[C@H]2[C@H](C=CCl)C2(C)C)c(F)c1F` (relative stereo) [Compound 10, trans-2,3,5,6-tetrafluoro-4-methylbenzyl-3-(2-chlorovinyl)-2,2-dimethylcyclopropane carboxylate], the LC50 in data set [1] (read-out: LC50) amounted to 0.0578 µg/mL (≈ 0.165 µM). In data set [1], this compound displayed a Relative toxicity of 18.

In data set [1], `CC1(C)C(C=CCl)C1C(=O)OC(C#N)c1ccc(F)c(Oc2ccccc2)c1` (mixture of isomers) [Compound 1, cis/trans-α-cyano-3-phenoxy-4-fluoro-benzyl-2,2-dimethyl-3-(E/Z-2-chlorovinyl)cyclopropane carboxylate] returned an LC50 of 0.00055 µg/mL and a Relative toxicity of 1927.

In data set [1], `Cc1c(F)c(F)c(COC(=O)[C@H]2[C@@H](/C=C/Cl)C2(C)C)c(F)c1F` (relative stereo) [Compound 7, cis-2,3,5,6-tetrafluoro-4-methyl benzyl-3-(E-2-chlorovinyl)-2,2-dimethylcyclopropane carboxylate] showed an LC50 of 0.0741 µg/mL (≈ 0.211 µM) and a Relative toxicity of 14.

Take `CC1(C)[C@H](/C=C/Cl)[C@@H]1C(=O)OCc1c(F)c(F)cc(F)c1F` (relative stereo) [Compound 6, cis-2,3,5,6-tetrafluoro-4-benzyl-3-(E-2-chlorovinyl)-2,2-dimethylcyclopropane carboxylate]: in data set [1], the LC50 is 0.4810 µg/mL (≈ 1.43 µM) and the Relative toxicity was 2.

On to `CC1(C)[C@@H](C=CCl)[C@@H]1C(=O)OCc1c(F)c(F)c(F)c(F)c1F` (relative stereo) [Compound 11, trans-pentafluorobenzyl-3-(2-chlorovinyl)-2,2-dimethyl cyclopropane carboxylate], for which, in data set [1], the LC50 came out at 0.2041 µg/mL (≈ 0.575 µM) and the Relative toxicity is 5.

`CC1(C)[C@H](C(=O)O[C@H](C#N)c2cccc(Oc3ccccc3)c2)[C@@H]1C=C(Br)Br` [Deltamethrin]: the LC50 in data set [1] (read-out: LC50) was 0.0012 µg/mL (≈ 0.00238 µM). Also, the Relative toxicity in data set [1] is on record as 883.

With `CC1(C)[C@H](C=CBr)[C@H]1C(=O)OC(C#N)c1ccc(F)c(Oc2ccccc2)c1` (stereo partly drawn) [Compound 4, (1R)-Trans-α-cyano-3-phenoxy-4-fluoro-benzyl-2,2-dimethyl-3-(2-bromovinyl)cyclopropane carboxylate], the LC50 in data set [1] (read-out: LC50) came out at 0.0027 µg/mL (≈ 0.00608 µM). Further, the Relative toxicity in data set [1] stood at 393.

On to `CC1(C)[C@H](C=C(Cl)Cl)[C@@H]1C(=O)OC(C#N)c1ccc(F)c(Oc2ccccc2)c1` (relative stereo) [corresponding dichloride compound, cis-α-cyano-3-phenoxy-4-fluoro-benzyl-2,2-dimethyl-3-(2,2-dichlorovinyl)cyclopropane carboxylate, reference compound], for which the degraded by light in data set [7] is given as 14%.

For `CC1(C)[C@H](/C=C/F)[C@@H]1C(=O)OC(C#N)c1ccc(F)c(Oc2ccccc2)c1` (relative stereo) [Compound 5, cis-α-cyano-3-phenoxy-4-fluoro-benzyl-2,2-dimethyl-3-(E-2-fluorovinyl)cyclopropane carboxylate], the 50% lethal concentration (LC50) in data set [1] (read-out: LC50) stood at 0.00061 µg/mL (≈ 0.00159 µM). Further, the Relative toxicity in data set [1] is listed as 1740.

On to `CC1(C)C(C=C(Cl)Cl)C1C(=O)OC(C#N)c1cccc(Oc2ccccc2)c1` (stereo not shown) [Cypermethrin], for which the 50% lethal concentration (LC50) in data set [1] (read-out: LC50) was 0.0106 µg/mL (≈ 0.0255 µM). Also, the Relative toxicity in data set [1] is reported as 100.
